Measurements: ChEMBL document CHEMBL1201862, “PubChem BioAssay data set” (2004)
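Five compound concentrations were applied to cells in 96-well plates for 48 hours; endpoints were derived by simple linear interpolation of the resulting dose-response curve. GI50 = concentration required for 50% inhibition of growth.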 Active and inactive are the calls of the source. Cut-off read from the data, not from the text of the source: active = GI50 up to about 1.1 µM and inactive = higher.

Columns and labels:
Test in all cases: growth of human tumour cells (NCI), 48 h
786-0 = test system: 786-0
A549 = test system: A549
BT-549 = test system: BT-549
CAKI-1 = test system: CAKI-1
EKVX = test system: EKVX
IGROV-1 = test system: IGROV-1
KM12 = test system: KM12
LOX IMVI = test system: LOX IMVI
MDA-N = test system: MDA-N
NCI-H226 = test system: NCI-H226
OVCAR-3 = test system: OVCAR-3
OVCAR-8 = test system: OVCAR-8
RPMI-8226 = test system: RPMI-8226
SK-MEL-28 = test system: SK-MEL-28
SK-MEL-2 = test system: SK-MEL-2
SN12C = test system: SN12C
T47D = test system: T47D
UACC-257 = test system: UACC-257
HCC 2998 = test system: HCC 2998

Measured: GI50

O=C(O)CN1CCNCCNCC1
inactive: 786-0 > 100 µM | A549 > 100 µM | BT-549 > 100 µM | CAKI-1 > 100 µM | EKVX > 100 µM | IGROV-1 > 100 µM | KM12 59.6 µM | LOX IMVI > 100 µM | MDA-N > 100 µM | NCI-H226 > 100 µM | OVCAR-3 > 100 µM | OVCAR-8 > 100 µM | RPMI-8226 > 100 µM | SK-MEL-28 > 100 µM | SK-MEL-2 > 100 µM | SN12C > 100 µM | T47D > 100 µM | UACC-257 > 100 µM

C#CCOCC12C=CC(O1)C1C(=O)OCC12 (stereo not drawn)
inactive: 786-0 > 100 µM | A549 > 100 µM | BT-549 > 100 µM | CAKI-1 > 100 µM | EKVX > 100 µM | HCC 2998 > 100 µM | IGROV-1 > 100 µM | KM12 > 100 µM | LOX IMVI > 100 µM | MDA-N > 100 µM | NCI-H226 > 100 µM | OVCAR-3 > 100 µM | OVCAR-8 > 100 µM | RPMI-8226 > 100 µM | SK-MEL-28 > 100 µM | SN12C > 100 µM | T47D > 100 µM | UACC-257 > 100 µM

COc1cc(C2c3cc4c(cc3OC(NN)C2C)OCO4)cc(OC)c1O (stereo not drawn)
inactive: 786-0 11.3 µM | A549 8.2 µM | BT-549 10.3 µM | CAKI-1 10.4 µM | HCC 2998 12.4 µM | IGROV-1 5.94 µM | KM12 6.08 µM | MDA-N 1.84 µM | NCI-H226 25.4 µM | OVCAR-3 3.66 µM | OVCAR-8 16.5 µM | RPMI-8226 3.95 µM | SK-MEL-28 6.75 µM | SK-MEL-2 3.3 µM | SN12C 4.3 µM | T47D 7.28 µM | UACC-257 18.5 µM

O=C(Nc1cccc2ccccc12)c1cc2ccccc2oc1=O
inactive: 786-0 13.7 µM | A549 > 100 µM | BT-549 > 100 µM | CAKI-1 48 µM | HCC 2998 > 100 µM | IGROV-1 18.5 µM | KM12 > 100 µM | LOX IMVI > 100 µM | MDA-N > 100 µM | NCI-H226 21.8 µM | OVCAR-3 70.5 µM | OVCAR-8 39.4 µM | RPMI-8226 > 100 µM | SK-MEL-28 > 100 µM | SK-MEL-2 40.6 µM | SN12C > 100 µM | T47D > 100 µM | UACC-257 > 100 µM

COc1cc(N(Cc2ccc3nc(OC)c(OC)nc3c2)Cc2ccc3nc(OC)c(OC)nc3c2)cc(OC)c1OC
inactive: 786-0 16.3 µM | A549 > 50 µM | BT-549 6.78 µM | CAKI-1 > 50 µM | EKVX 39.3 µM | KM12 > 50 µM | LOX IMVI > 50 µM | MDA-N > 50 µM | NCI-H226 > 50 µM | OVCAR-3 31.5 µM | OVCAR-8 > 50 µM | RPMI-8226 > 50 µM | SK-MEL-28 > 50 µM | SK-MEL-2 20.9 µM | SN12C > 50 µM | T47D > 50 µM | UACC-257 > 50 µM

O=C1c2ccccc2-c2[nH]c3cn[nH]c(=O)c3c21
inactive: 786-0 > 100 µM | A549 > 100 µM | BT-549 > 100 µM | CAKI-1 91.6 µM | EKVX 79.4 µM | IGROV-1 23.1 µM | KM12 > 100 µM | LOX IMVI 78.5 µM | MDA-N 61.4 µM | NCI-H226 78.7 µM | OVCAR-3 > 100 µM | OVCAR-8 > 100 µM | RPMI-8226 92.9 µM | SK-MEL-2 47.2 µM | SN12C > 100 µM | T47D > 100 µM | UACC-257 > 100 µM

CO/C=C(/C(=O)OC)c1ccccc1[C@H]1C[C@@H]1c1ccccc1
inactive: 786-0 31.7 µM | A549 21.1 µM | BT-549 20.5 µM | CAKI-1 16 µM | EKVX 15.4 µM | HCC 2998 20.6 µM | IGROV-1 19.9 µM | KM12 20.1 µM | MDA-N 18.7 µM | NCI-H226 20.5 µM | OVCAR-3 18.5 µM | OVCAR-8 28.7 µM | RPMI-8226 12.6 µM | SK-MEL-28 25.8 µM | SK-MEL-2 17.2 µM | SN12C 28.6 µM | T47D 18.6 µM | UACC-257 15.8 µM

CCCCCCCCCCCCCCCCOCC(COP(=O)([O-])OCC[n+]1ccc(N(C)C)cc1)OCC (stereo not drawn)
active: KM12 0.0527 µM
inactive: 786-0 18 µM | A549 16.2 µM | BT-549 7.74 µM | HCC 2998 13.7 µM | IGROV-1 16.9 µM | LOX IMVI 12.6 µM | MDA-N 17 µM | NCI-H226 17.2 µM | OVCAR-3 11.4 µM | OVCAR-8 19.5 µM | RPMI-8226 4.12 µM | SK-MEL-28 17.6 µM | SK-MEL-2 13.4 µM | SN12C 19.7 µM | T47D 18 µM

CC1C(C#N)(C#N)C(C#N)=C(N)C1(C)[N+](=O)[O-] (stereo not drawn)
inactive: 786-0 56 µM | A549 23.5 µM | BT-549 42.1 µM | CAKI-1 5.27 µM | EKVX 21.5 µM | HCC 2998 47.6 µM | IGROV-1 37.2 µM | KM12 > 100 µM | LOX IMVI 37.7 µM | MDA-N 64.6 µM | NCI-H226 > 100 µM | OVCAR-3 67.9 µM | OVCAR-8 65.8 µM | RPMI-8226 28.7 µM | SK-MEL-2 > 100 µM | SN12C 58.2 µM | T47D > 10 µM | UACC-257 79.8 µM

COc1c(O)cc2c(c1O)C1O[C@H](CO)C(O)[C@H](O)[C@H]1OC2=O (stereo partly drawn)
inactive: 786-0 > 100 µM | A549 > 100 µM | BT-549 > 100 µM | CAKI-1 > 100 µM | HCC 2998 > 100 µM | IGROV-1 > 100 µM | KM12 > 100 µM | LOX IMVI > 100 µM | MDA-N > 100 µM | NCI-H226 > 100 µM | OVCAR-3 > 100 µM | OVCAR-8 > 100 µM | RPMI-8226 > 100 µM | SK-MEL-28 > 100 µM | SK-MEL-2 > 100 µM | SN12C > 100 µM | T47D > 100 µM | UACC-257 > 100 µM

COc1ccc(/C=C2\CN(C)CC3C2=NN(c2ccccc2)C3c2ccc(OC)cc2)cc1 (stereo not drawn)
inactive: 786-0 27.7 µM | A549 > 100 µM | BT-549 > 100 µM | CAKI-1 60 µM | EKVX > 100 µM | HCC 2998 > 100 µM | IGROV-1 > 100 µM | KM12 > 100 µM | LOX IMVI > 100 µM | MDA-N > 100 µM | NCI-H226 > 100 µM | OVCAR-3 > 100 µM | OVCAR-8 67.5 µM | RPMI-8226 > 100 µM | SK-MEL-28 > 100 µM | SN12C > 100 µM | T47D > 100 µM | UACC-257 > 100 µM
